Patent publication US20100093638A1, “TREAMENT FOR CHEMICAL SUBSTANCE ADDICTION” (priority 2007, published 2010)
No end group written: not given here.

Key:
[1] = test system: ghrelin receptor (GHS-R1A) knockout mice; conditions: alcohol 1.0 g/kg i.p.; GHS-R knockout mice vs wildtype; P<0.05
Source text: Locomotor activity was registered in eight sound attenuated, ventilated and dimly lit locomotor boxes (420×420×200 mm, Plexiglas®). Five by five rows of photocell beams at the floor level of the box allowed a computer-based system to register the activity of the mice. The mice were allowed to habituate to the environment in the box for one hour before drug challenge and initialization of the experiment. […] Locomotor activity was defined as the accumulated number of new photocell beams interrupted during a 60-minute period.

[2] = test system: ghrelin receptor (GHS-R1A) knockout mice; conditions: alcohol 1.0 g/kg ip; GHSR knockout mice vs wt/wt
Method: The mice were implanted with a microdialysis probe in the nucleus accumbens for measurements of extracellular dopamine levels. […] The mice were connected to the microdialysis apparatus via a liquid swivel (CMA/Microdialysis AB, Stockholm, Sweden) and were able to move freely during the experiment. After one hour of habituation to the microdialysis perfusion set up, perfusion samples (30 μl) were collected every 20 minutes. Five samples were collected prior to the first alcohol challenge. The baseline dopamine level is defined as the averaged concentration of the three consecutive samples before the first alcohol challenge. Thereafter vehicle (saline, ip) was administered at time 0 minutes.

mice = assay: Effects of central ghrelin injection on alcohol intake and alcohol preference, two-bottle free choice paradigm; format: in vivo; conditions: for average alcohol intake / average alcohol preference: ghrelin 2 μg in 1 μl into third ventricle; for average alcohol intake: baseline 1.65; for average alcohol preference: day before 26.76%
Source text: The following studies sought to determine whether ghrelin increases alcohol intake and the preference for alcohol in mice selected on the basis of their spontaneous level of alcohol intake. We tested the effects of ghrelin injection into the brain ventricles on alcohol consumption and alcohol preference in mice.
All mice used in this study were selected on the basis of their spontaneously medium level of alcohol intake. Initially, the mice were able to choose freely between alcohol solution (10%) and water. When they had established a stable alcohol intake (approximately 20-80% of their total fluid intake was alcohol) they began a training schedule that gave them access to 10% alcohol for 90 min ever day over two weeks. The mice were then implanted with a cannula into the third ventricle of the brain for subsequent injection. During a baseline period, spontaneous alcohol intake was measured during a 90 min period average for 3 measurements taken on 3 days using a two-bottle free choice paradigm (i.e. water or 10% alcohol). The same protocol was used after ghrelin/vehicle injection on the experimental days.

[3] = intraventricular administration, p<0.05, paired t-test

Compound | alcohol-induced locomotor activity [1] | alcohol-induced accumbal dopamine release [2] | average alcohol intake (mice; experiment day one) [g/kg/1.5 hr] | average alcohol preference (mice; experiment day one) [%] | average alcohol intake (mice; experiment day two) [g/kg/1.5 hr] | average alcohol preference (mice; experiment day two) [%] | effect on alcohol intake compared to the day before the experiments (mice; [3]) | effect on alcohol preference compared to the day before the experiments (mice; [3])
CCO [alcohol] | do not show an alcohol-induced locomotor activity | blunted | – | – | – | – | – | –
ghrelin (GSSFLSPEHQRVQQRKESKKPPAKLQPR; ends and bridges not checked; UniProt Q9UBU3 24-51, looked up) [endogenous ligand for GHS-R, secreted by stomach tissue; purchasable from Bachem] | – | – | 1.72 | 31.72 | 2.15 | 33.70 | increased the alcohol intake | significant increase of alcohol preference
